Here are results for four molecules from US4434159A, “Pharmaceutical composition for intrarectal administration, and suppository prepared therefrom” (Teijin Limited, priority 1980, dated 1984).

The test system of data set [1] is mucous membrane of the eyes (cornea, iris, conjunctiva). Briefly: Draize eye irritation test of absorption aids in rabbits. How it is done: Nothing was applied to the other eye. Thus, irritation of the absorption aid to the mucous membrane of the eyes were examined, and scores were calculated in accordance with the Draize's eye irritation evaluating method [Association of Foods, Drugs and Cosmetics" (1957)].

In data set [2] the test system is serum calcium level. Briefly: Effect of the amount of the absorption aid on the decrease of serum calcium level (calcitonin suppositories, rats). The class given is in vivo. As to conditions: intrarectal, SD male rats, one hour. On the procedure: (§1) (a) About 14 g of each of the absorption aids shown in Table 1 was added to 186 g of cacao butter, and they were well mixed by a grinder. Salmon caltintonin or [Asu^1,7 ]-eel calcitonin was added gradually and mixed to form a homogeneous composition. The composition was slightly heated to make it flowable, and about 80 mg of it was cast into a suppository container made for rats, and allowed to solidify by cooling to obtain a rat suppository having a diameter of about 3 mm and a length of about 6 mm. The suppository contained 0.7 MRC units of calcitonin.
(§2) The suppository was administered to the rectum of each of […] male rats (body weight about 200 g) and the concentration of calcium in the serum was measured 1, 2, 3, and 5 hours later to examine the absorbabillity of calcitonin from the rectum. The calcium level in the serum was measured by using a calcium level measuring kit of Yatoron Co., and five rats were used for each blood withdrawal. The results are shown in Table 1 as the decrease (%) of the serum calcium level from that before administration of the calcitonin-containing suppository.
(b) Suppositories containing 0.7 MRC unit of [Aus^1.7 ]-eel calcitonin per 80 mg were prepared in the same way as in (a) above by including each of the absorption aids shown in Table 2 in the amounts indicated. Each of the suppositories was intrarectally administered to SD male rats in the same way as in (a) above, and the decrease (%) of the serum calcium level was measured one hour after the administration.

Another data set has as its system blood glucose level. Briefly: Decrease in blood glucose level after administration of insulin suppositories to rabbits. The class given is in vivo. As to conditions: 0.32 u/kg intramuscularly administered. On the procedure: 500 mg of the dispersion was filled into a gelatin capsule for suppositories to form a gelatin capsule suppository. One capsule contained 9.6 units of insulin. In the same manner as above, insulin suppositories were prepared using the other absorption aids shown in Table 4 instead of ascorbic acid. The content (units) of insulin and the amounts of the absorption aids and the base (fractionated coconut oil) were as shown in Table 4. […] Each time, 0.5 ml of the blood was withdrawn from the ear vein. The glucose level of the blood was measured by the glucose oxidase method. Table 4 summarizes the decrease (%) of the blood glucose level from that before the administration.

The test system of data set [3] is serum calcium level. As to the kind of experiment: Decrease of the serum calcium level after administration of calcitonin suppositories to rats. The class given is in vivo. The conditions noted are these: 0.7 u/kg intramuscularly administered. How it is done:
as §1, §2
Furthermore, [Aus^1,7 ]-eel calcitonin was intramuscularly injected to rats, and the decrease in serum calcium level was also examined.

Setting [4] is: 2.4 w/v % soln, 1 hours after application.
Where [5] appears, read: 2.4 w/v % soln, 3 hours after application.
The mark [6] stands for this setting: 2.4 w/v % soln, 6 hours after application.
Setting [7] is: 2.4 w/v % soln, 24 hours after application.
[8] abbreviates: 2.4 w/v % soln, 48 hours after application.
[9] abbreviates: 2.4 w/v % soln, 72 hours after application.
[10] abbreviates: 2.4 w/v % soln, 96 hours after application.
[11] abbreviates: 2.4 w/v % soln, 168 hours after application.
The mark [12] stands for this setting: absorption aid 0.8% of suppository with 0.7 MRC unit [Aus^1.7]-eel calcitonin per 80 mg.
Where [13] appears, read: absorption aid 2.4% of suppository with 0.7 MRC unit [Aus^1.7]-eel calcitonin per 80 mg.
The mark [14] stands for this setting: absorption aid 7.0% of suppository with 0.7 MRC unit [Aus^1.7]-eel calcitonin per 80 mg.

For `O=C1O[C@H]([C@@H](O)CO)C(O)=C1O` [Ascorbic acid], the “Primary irritation scores on the eyes: Conjunctiva” value is on record as 3.3 in data set [1] (setting [4]); 1.3 in data set [1] (setting [5]); 1.3 in data set [1] (setting [6]); 0 in data set [1] (setting [7]); 0 in data set [1] (setting [8]); 0 in data set [1] (setting [9]). Also, the “Primary irritation scores on the eyes: Conjunctiva” value in data set [1] (setting [10]) and in data set [1] (setting [11]) was 0 throughout. Also, the “Primary irritation scores on the eyes: Cornea” value in data set [1] (setting [4]), in data set [1] (setting [5]), in data set [1] (setting [6]), in data set [1] (setting [7]), in data set [1] (setting [8]) and in data set [1] (setting [9]) was 0 each time. For the same molecule, the “Primary irritation scores on the eyes: Cornea” value in data set [1] (setting [10]) and in data set [1] (setting [11]) was 0 throughout. Besides, the “Primary irritation scores on the eyes: Iris” value in data set [1] (setting [4]), in data set [1] (setting [5]), in data set [1] (setting [6]), in data set [1] (setting [7]), in data set [1] (setting [8]) and in data set [1] (setting [9]) was 0 throughout. Also, the “Primary irritation scores on the eyes: Iris” value in data set [1] (setting [10]) and in data set [1] (setting [11]) was 0 in each case. Also, the “Primary irritation scores on the eyes: Total” value in data set [1] (setting [4]) came out at 3.3; in data set [1] (setting [5]) it was 1.3; in data set [1] (setting [6]), 1.3; in data set [1] (setting [7]) it was 0; in data set [1] (setting [8]), 0; in data set [1] (setting [9]), 0. Also, the “Primary irritation scores on the eyes: Total” value in data set [1] (setting [10]) and in data set [1] (setting [11]) was 0 throughout. Further, the “irritation to the mucous membrane of the eyes (in words)” value in data set [1] (aqueous solution applied dropwise to rabbit eye, Draize evaluation) is “almost no irritation”. The “Decrease of the serum calcium level (%)” value with serum calcium level [2] (setting [12]) came out at 16.0%; with serum calcium level [2] (setting [13]), 22.3%; in the data set on serum calcium level [2] (setting [14]) it was 33.1%; in the data set with serum calcium level [2] (absorption aid 15.0% of suppository with 0.7 MRC unit [Aus^1.7]-eel calcitonin per 80 mg), 35.1%.

Regarding `O=C1CCC(C(=O)O)N1` (racemic) [DL-Pyroglutamic acid], the “Primary irritation scores on the eyes: Cornea” value in data set [1] (rabbit, in vivo) was found to be 0. Also, the “Primary irritation scores on the eyes: Iris” value in data set [1] (rabbit, in vivo) was 0. Further, the “irritation to the mucous membrane of the eyes (in words)” value in data set [1] (rabbit, in vivo) is given as “almost no irritation”. The “Decrease of the serum calcium level (%)” value is listed as 15.2% in the data set with serum calcium level [2] (setting [12]), 20.1% in the data set on serum calcium level [2] (setting [13]) and 31.0% in the data set on serum calcium level [2] (setting [14]).

With “Insulin: porcine insulin, intramuscularly administered as comparison”, the “Decrease (%) in blood glucose level from that before administration” value in the data set on blood glucose level (30 minutes) is recorded as 13.7%; in the data set with blood glucose level (1 hour), 32.6%; in the data set on blood glucose level (2 hours), 36.2%; in the data set on blood glucose level (3 hours), 15.2%.

Turning to “[Asu^1,7 ]-eel calcitonin [[Asu^1.7]eel calcitonin]”, the “Decrease (%) in serum calcium level from that before administration” value in the data set with serum calcium level [3] (after 1 hour) was 26.0%; in the data set on serum calcium level [3] (after 2 hours), 30.5%; with serum calcium level [3] (after 3 hours) it was 17.5%; in the data set on serum calcium level [3] (after 5 hours) it was 2.1%.
